Patent US9181264B2, “Fused heteroaryls and their uses” (Hutchison MediPharma Limited, priority 2011, dated 2015)

How the values were obtained:
PI3Kα kinase = biological target: T1, PI3Kα kinase (Homo sapiens, UniProt P42336); experiment: PI3Ka Transcreener ADP assay (fluorescence polarization); assay type: biochemical; conditions: 10 μM ATP, 30 μmol/L lipid substrate; read-out: IC50, inhibition of PI3Kα kinase
T1 construct: purchased Invitrogen PV4788
Experimental: Fluorescence polarization was used in this assay. The final conditions for kinase assay are 10 μM of ATP, 0.2 ng/μL of PI3Kα kinase, 30 μmol/L of lipid substrate and assay buffer (50 mmol/L of HEPES (pH 7.5), 100 mmol/L of NaCl, 1 mmol/L of EGTA, 3 mmol/L of MgCl2, 1 mmol/L of DTT and 0.03% CHAPS and 2% DMSO).
5 μL of test compounds in 10% DMSO and 10 μL of 0.5 ng/μL PI3K kinase (Invitrogen, PV4788) in assay buffer are put into a 96-well plate (Greiner, Cat. 675076), and then the reaction is started by the addition of 10 μL of 75 μmol/L PIP2, (PS Lipid Substrate Invitrogen, PV5100), and 25 μmol/L ATP mixture. After the mixture is incubated for 60 minutes at room temperature, 25 μL of transcreener Kinase Kit reagent—ADP Detection Mix—(Bellbrook Labs) is added, and the reaction is continued for an additional 1.5 hours. At the end, the plate is read in a Tecan Infinite F500 at excitation of 610 nm and emission of 670 nm.
A standard curve for ADP is obtained in a parallel way by replacing compound and PI3Kα kinase with DMSO and assay buffer, respectively. Different concentration of ADP, 0-10 μM, and ATP, 10-0 μM (ATP+ADP equal to 10 μM) are applied instead of a fixed concentration of ATP in this standard curve assay. Other conditions are the same as described above. The standard curve is plotted using Origin 8.0 software. The inhibition of test compound on ADP production is calculated based on ADP concentration from standard curve. IC50 is obtained using XLfit 2.0 software.

mTOR kinase = biological target: T2, mTOR kinase (Homo sapiens, UniProt P42345); experiment: mTOR LanthaScreen TR-FRET assay; assay type: biochemical; conditions: 10 μmol/L ATP, GFP-4EBP1 substrate; read-out: IC50, inhibition of mTOR
T2 construct: purchased Invitrogen PV4753
T2 sequence (P42345 1360-2549 limits assumed): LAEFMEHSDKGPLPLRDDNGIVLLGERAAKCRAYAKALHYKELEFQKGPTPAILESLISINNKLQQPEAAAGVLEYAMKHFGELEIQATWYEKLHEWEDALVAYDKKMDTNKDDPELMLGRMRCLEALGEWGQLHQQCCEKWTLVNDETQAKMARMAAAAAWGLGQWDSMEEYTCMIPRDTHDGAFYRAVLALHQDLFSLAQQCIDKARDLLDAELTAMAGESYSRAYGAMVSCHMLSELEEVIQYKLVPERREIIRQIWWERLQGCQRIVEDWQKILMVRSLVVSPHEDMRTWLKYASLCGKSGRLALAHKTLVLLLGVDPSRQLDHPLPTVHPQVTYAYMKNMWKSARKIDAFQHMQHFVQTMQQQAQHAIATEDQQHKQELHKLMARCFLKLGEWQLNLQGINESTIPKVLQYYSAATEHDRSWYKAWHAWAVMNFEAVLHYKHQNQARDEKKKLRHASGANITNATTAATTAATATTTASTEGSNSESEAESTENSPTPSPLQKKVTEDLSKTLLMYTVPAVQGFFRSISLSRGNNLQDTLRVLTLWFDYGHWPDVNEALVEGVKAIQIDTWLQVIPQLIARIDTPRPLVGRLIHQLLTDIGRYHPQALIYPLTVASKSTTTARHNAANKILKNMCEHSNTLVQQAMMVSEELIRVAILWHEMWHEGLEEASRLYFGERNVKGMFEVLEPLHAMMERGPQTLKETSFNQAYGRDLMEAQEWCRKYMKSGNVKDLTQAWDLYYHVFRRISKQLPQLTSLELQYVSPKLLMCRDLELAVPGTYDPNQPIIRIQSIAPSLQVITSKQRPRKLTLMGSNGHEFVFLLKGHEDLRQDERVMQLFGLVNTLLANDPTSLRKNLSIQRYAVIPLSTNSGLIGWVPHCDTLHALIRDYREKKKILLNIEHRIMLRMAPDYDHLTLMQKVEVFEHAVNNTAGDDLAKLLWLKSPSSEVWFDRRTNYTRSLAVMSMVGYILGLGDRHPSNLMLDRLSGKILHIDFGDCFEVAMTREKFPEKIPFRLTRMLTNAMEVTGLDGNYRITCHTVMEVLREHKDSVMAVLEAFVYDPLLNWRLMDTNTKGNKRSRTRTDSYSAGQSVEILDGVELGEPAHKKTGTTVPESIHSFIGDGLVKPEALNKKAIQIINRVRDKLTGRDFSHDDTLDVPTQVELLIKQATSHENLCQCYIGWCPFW
Experimental: Compounds are tested using LanthaScreen TR-FRET Assay. The kinase reaction is completed in 384-well black plate (Corning, Cat. 3676). The final conditions for kinase assay are: 10 μmol/L of ATP, 0.2 ng/μL of mTOR kinase, 0.4 μmol/L of GFP-4EBP1 substrate and assay buffer (50 mmol/L of HEPES, pH 7.5, 0.01% of Tween 20, 1 mmol/L of EGTA, 10 mmol/L of MnCl2, 2 mmol/L of DTT and 1% DMSO).
To each well, 2.5 μL of test compounds in 4% DMSO and 2.5 μL of 0.8 ng/μL mTOR kinase (Invitrogen, PV4753) diluted in assay buffer are added. The reaction is initiated by the addition of 5 μL mixture of 0.8 μmol/L GFP-4EBP1 Substrate (Invitorgen, PV4759) and 20 μmol/L ATP mixtures. The mixture is incubated at room temperature for 60 minutes. 10 μL of 20 mmol/L EDTA and 4 nmol/L Tb-anti-p4EBP1 [pThr46] antibody (Invitrogen, PV4755) diluted in TR-FRET dilution buffer are added and incubated for an additional 1 hour. The plate is then read in a BioTek Synergy2 Reader at excitation of 340 nm and emission of 490 nm and 528 nm.
The inhibition of test compound is calculated based on the ratio of 528 nm/490 nm. IC50 of test compound is obtained using XLfit 2.0 software.

T1 sequence (P42336 whole entry): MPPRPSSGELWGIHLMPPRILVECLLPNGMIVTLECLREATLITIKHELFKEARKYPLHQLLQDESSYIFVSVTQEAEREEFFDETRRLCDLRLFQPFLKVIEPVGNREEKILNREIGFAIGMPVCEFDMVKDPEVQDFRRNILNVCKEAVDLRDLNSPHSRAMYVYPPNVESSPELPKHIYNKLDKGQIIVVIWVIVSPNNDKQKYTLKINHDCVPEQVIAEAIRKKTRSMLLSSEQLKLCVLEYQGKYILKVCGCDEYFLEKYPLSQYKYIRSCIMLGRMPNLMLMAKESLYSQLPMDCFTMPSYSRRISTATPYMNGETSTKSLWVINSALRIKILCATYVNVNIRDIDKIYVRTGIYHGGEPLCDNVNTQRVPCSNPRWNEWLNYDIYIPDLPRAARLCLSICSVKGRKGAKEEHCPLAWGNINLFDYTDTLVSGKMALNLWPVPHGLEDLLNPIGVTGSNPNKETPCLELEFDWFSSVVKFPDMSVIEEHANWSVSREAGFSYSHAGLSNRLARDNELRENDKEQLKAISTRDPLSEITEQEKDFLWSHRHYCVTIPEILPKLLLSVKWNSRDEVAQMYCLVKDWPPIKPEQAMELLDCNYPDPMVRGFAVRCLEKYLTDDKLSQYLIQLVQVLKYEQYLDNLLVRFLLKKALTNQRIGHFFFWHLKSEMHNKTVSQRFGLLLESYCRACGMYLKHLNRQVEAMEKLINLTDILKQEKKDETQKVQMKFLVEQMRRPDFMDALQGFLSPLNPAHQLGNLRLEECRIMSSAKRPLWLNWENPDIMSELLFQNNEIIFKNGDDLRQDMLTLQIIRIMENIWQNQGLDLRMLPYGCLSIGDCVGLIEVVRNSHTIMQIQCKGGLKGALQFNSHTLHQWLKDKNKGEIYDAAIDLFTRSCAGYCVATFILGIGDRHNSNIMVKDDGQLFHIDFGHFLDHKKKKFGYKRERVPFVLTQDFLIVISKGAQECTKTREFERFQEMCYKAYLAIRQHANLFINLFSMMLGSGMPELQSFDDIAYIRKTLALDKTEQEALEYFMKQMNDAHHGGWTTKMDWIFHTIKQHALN
T1 sequence (P27986 whole entry partner): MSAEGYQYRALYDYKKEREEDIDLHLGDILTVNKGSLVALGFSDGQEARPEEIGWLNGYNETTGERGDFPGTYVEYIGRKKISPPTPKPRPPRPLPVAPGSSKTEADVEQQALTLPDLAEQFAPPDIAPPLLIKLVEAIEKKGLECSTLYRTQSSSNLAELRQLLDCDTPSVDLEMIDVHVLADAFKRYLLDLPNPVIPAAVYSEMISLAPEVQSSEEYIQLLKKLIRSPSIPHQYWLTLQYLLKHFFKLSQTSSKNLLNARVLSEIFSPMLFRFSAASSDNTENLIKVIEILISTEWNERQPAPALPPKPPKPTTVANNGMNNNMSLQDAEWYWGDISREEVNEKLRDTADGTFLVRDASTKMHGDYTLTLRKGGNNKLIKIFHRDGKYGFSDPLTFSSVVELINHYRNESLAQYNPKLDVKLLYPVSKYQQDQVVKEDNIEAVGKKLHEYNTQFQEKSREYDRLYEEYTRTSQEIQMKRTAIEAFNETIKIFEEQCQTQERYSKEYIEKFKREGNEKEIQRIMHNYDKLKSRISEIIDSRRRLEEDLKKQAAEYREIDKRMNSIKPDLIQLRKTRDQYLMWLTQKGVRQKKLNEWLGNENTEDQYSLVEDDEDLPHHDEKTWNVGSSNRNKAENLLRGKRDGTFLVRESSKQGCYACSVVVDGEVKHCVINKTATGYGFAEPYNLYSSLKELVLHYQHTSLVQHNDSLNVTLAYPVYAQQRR

Row | SMILES | IC50 (PI3Kα kinase) [nM] | IC50 (mTOR kinase) [nM]
1 | C[C@H](O)C(=O)N1CCC(n2nnc3cnc4ccc(-c5cnc(N)c(C(F)(F)F)c5)nc4c32)CC1 [Compound 1, (S)-1-(4-(8-(6-amino-5-(trifluoromethyl)pyridin-3-yl)-1H-[1,2,3]triazolo[4,5-c][1,5]naphthyridin-1-yl)piperidin-1-yl)-2-hydroxypropan-1-one] | < 100 | < 100
2 | COc1ncc(-c2ccc3ncc4nnc(CN(C)C)n4c3c2)cc1NS(=O)(=O)c1ccc(F)cc1F [Compound 158] | < 100 | < 100
3 | Nc1ncc(-c2ccc3ncc4nnn(C5CCN(CCO)CC5)c4c3n2)cc1C(F)(F)F [Compound 46] | < 100 | < 100
4 | CC(C)(C#N)c1ccc(-c2nnc3cnc4ccc(-c5ccc(N)nc5)cc4n23)cc1 [Compound 50] | < 100 | < 100
5 | CC(C)(C#N)c1ccc(-c2nnc3cnc4ccc(-c5cnc(N)c(F)c5)cc4n23)cc1 [Compound 66] | < 100 | < 100
6 | COc1ncc(-c2ccc3ncc4nnc(-c5ccc(F)cc5)n4c3c2)cc1NS(C)(=O)=O [Compound 152] | < 100 | < 100
7 | CCC(=O)N1CCC(n2c(C)nc3cnc4ccc(-c5cnc(N)c(C(F)(F)F)c5)nc4c32)CC1 [Compound 120] | < 100 | < 100
8 | CCOc1cc(-c2ccc3ncc4nnc(-c5ccc(C(C)(C)C#N)cc5)n4c3c2)cnc1N [Compound 75] | < 100 | < 100
9 | Cc1nc2cnc3ccc(-c4cnc(N)c(C(F)(F)F)c4)nc3c2n1C1CCN(C(=O)[C@H](C)O)CC1 [Compound 122] | < 100 | < 100
10 | CCC(=O)N1CCC(n2nnc3cnc4ccc(-c5cnc(N)c(C(F)(F)F)c5)nc4c32)CC1 [Compound 6] | < 100 | < 100
11 | CS(=O)(=O)N1CCC(n2cnc3cnc4ccc(-c5cnc(N)c(C(F)(F)F)c5)nc4c32)CC1 [Compound 103] | < 100 | < 100
12 | CC(C)(C#N)c1ccc(-n2nnc3cnc4ccc(-c5cnc(N)c(C(F)(F)F)c5)nc4c32)cn1 [Compound 16] | < 100 | < 100
13 | Cc1nc2cnc3ccc(-c4cnc(N)c(C(F)(F)F)c4)nc3c2n1C1CCN(C(=O)C2CC2)CC1 [Compound 119, (4-(8-(6-amino-5-(trifluoromethyl)pyridine-3yl)-2-methyl-1H-imidazo[4,5-c][1,5]naphthyridin-1-yl)piperidin-1-yl)(cyclopropyl)methanone] | < 100 | < 100
14 | COc1ncc(-c2ccc3ncc4ncn(C)c4c3n2)cc1NS(=O)(=O)c1ccc(F)cc1F [Compound 153] | < 100 | < 100
15 | CC(=O)N1CCC(n2cnc3cnc4ccc(-c5cnc(N)c(C(F)(F)F)c5)nc4c32)CC1 [Compound 102] | < 100 | < 100
16 | Cc1ncc(-c2ccc3ncc4nnc(C)n4c3c2)cc1NS(=O)(=O)c1ccc(F)cc1F [Compound 156] | < 100 | < 100
17 | COc1ncc(-c2ccc3ncc4nc(C)n(C)c4c3n2)cc1NS(=O)(=O)C(F)(F)F [Compound 166] | < 100 | < 100
18 | COc1ncc(-c2ccc3ncc4nc(C)n(C)c4c3n2)cc1NS(=O)(=O)c1ccc(F)cc1F [Compound 151] | < 100 | < 100
19 | CN(C)C(=O)CN1CCC(n2nnc3cnc4ccc(-c5cnc(N)c(C(F)(F)F)c5)nc4c32)CC1 [Compound 43, 2-(4-(8-(6-amino-5-(trifluoromethyl)pyridin-3-yl)-1H-[1,2,3]triazolo[4,5-c][1,5]naphthyridin-1-yl)piperidin-1-yl)-N,N-dimethylacetamide] | < 100 | < 100
20 | CCC(=O)N1CCC(n2cnc3cnc4ccc(-c5cnc(N)c(C(F)(F)F)c5)nc4c32)CC1 [Compound 96] | < 100 | < 100
21 | CCNC(=O)N1CCC(n2nnc3cnc4ccc(-c5cnc(N)c(C(F)(F)F)c5)nc4c32)CC1 [Compound 45] | < 100 | < 100

Row | SMILES | IC50 (PI3Kα kinase) [nM] | IC50 (mTOR kinase) [nM]
22 | Nc1ncc(-c2ccc3ncc4nnn(C5CCOCC5)c4c3n2)cc1C(F)(F)F [Compound 10] | < 100 | < 100
23 | CC(C)(C#N)c1ccc(-c2nnc3cnc4ccc(-c5cnc(N)c(C(F)(F)F)c5)cc4n23)cc1 [Compound 49, 2-(4-(8-(6-amino-5-(trifluoromethyl)pyridin-3-yl)-[1,2,4]triazolo[4,3-a]quinoxalin-1-yl)phenyl)-2-methylpropanenitrile] | < 100 | < 100
24 | Nc1ncc(-c2ccc3ncc4ncn(C5CCN(C(=O)C6CC6)CC5)c4c3n2)cc1C(F)(F)F [Compound 88, (4-(8-(6-amino-5-(trifluoromethyl)pyridine-3-yl)-1H-imidazo[4,5-c][1,5]naphthyridin-1-yl)piperidin-1-yl)(cyclopropyl)methanone] | < 100 | < 100
25 | COc1ncc(-c2ccc3ncc4nnc(C)n4c3c2)cc1NS(=O)(=O)c1ccccc1F [Compound 180] | < 100 | < 100
26 | COCC(=O)N1CCC(n2nnc3cnc4ccc(-c5cnc(N)c(C(F)(F)F)c5)nc4c32)CC1 [Compound 7] | < 100 | < 100
27 | C[C@H](O)C(=O)N1CCC(n2cnc3cnc4ccc(-c5cnc(N)c(C(F)(F)F)c5)nc4c32)CC1 [Compound 107] | < 100 | < 100
28 | COc1ncc(-c2ccc3ncc4nnc(C)n4c3c2)cc1NS(=O)(=O)C(F)(F)F [Compound 155] | < 100 | < 100
29 | CC(C)(O)C(=O)N1CCC(n2nnc3cnc4ccc(-c5cnc(N)c(C(F)(F)F)c5)nc4c32)CC1 [Compound 26] | < 100 | < 100
30 | CCc1nc2cnc3ccc(-c4cnc(N)c(C(F)(F)F)c4)nc3c2n1C1CCOCC1 [Compound 131] | < 100 | < 100
31 | CC1(CN2CCC(n3cnc4cnc5ccc(-c6cnc(N)c(C(F)(F)F)c6)nc5c43)CC2)COC1 [Compound 105] | < 100 | < 100
32 | Cc1cc(-c2ccc3ncc4nnc(-c5ccc(C(C)(C)C#N)cc5)n4c3c2)cnc1N [Compound 58] | < 100 | < 100
33 | Cn1c(=O)n(-c2ccc(C(C)(C)C#N)nc2)c2c3cc(-c4cnc(N)nc4)ccc3ncc21 [Compound 42] | < 100 | < 100
34 | N#CC1(C(=O)N2CCC(n3nnc4cnc5ccc(-c6cnc(N)c(C(F)(F)F)c6)nc5c43)CC2)CC1 [Compound 33] | < 100 | < 100
35 | CCn1nc2cnc3ccc(-c4cnc(OC)c(NS(=O)(=O)c5ccc(F)cc5F)c4)cc3n2c1=O [Compound 149] | < 100 | < 100
36 | CC(C)(C#N)c1ccc(-n2nnc3cnc4ccc(-c5cnc(N)c(C(F)(F)F)c5)nc4c32)cc1 [Compound 17] | < 100 | < 100
37 | CCCC(=O)N1CCC(n2nnc3cnc4ccc(-c5cnc(N)c(C(F)(F)F)c5)nc4c32)CC1 [Compound 35] | < 100 | < 100
38 | COc1ncc(-c2ccc3ncc4nnn(C)c4c3n2)cc1NS(=O)(=O)c1ccc(F)cc1F [Compound 154] | < 100 | < 100
39 | COc1ncc(-c2ccc3ncc4nnc(C)n4c3c2)cc1NS(=O)(=O)c1ccc(F)cc1F [Compound 147, 2,4-difluoro-N-(2-methoxy-5-(1-methyl-[1,2,4]triazolo[4,3-a]quinoxalin-8-yl)pyridin-3-yl)benzenesulfonamide] | < 100 | < 100
40 | Nc1ncc(-c2ccc3ncc4nnn(C5CCN(C(=O)CO)CC5)c4c3n2)cc1C(F)(F)F [Compound 25] | < 100 | < 100
41 | COc1ncc(-c2ccc3ncc4nnc(CN(C)C)n4c3c2)cc1NS(=O)(=O)C(F)(F)F [Compound 165] | < 100 | < 100
